What follows are compounds tested on HCV replicon RNA, genotype 1a (Huh-1a7 replicon cell line) (assay: HCV Replicon Assay - qRT-PCR, genotype 1a replicon). Details: Hepatitis C virus; HCV genotype 1a replicon, HCV RNA by qRT-PCR normalized to GAPDH RNA.
Format: cell-based, HCV (strain H77
From the text: HCV replicon cell lines (kindly provided by R. Bartenschlager) isolated from colonies as described by Lohman et al. (Lohman et al. (1999) Science 285: 110-113, expressly incorporated by reference in its entirety) and used for all experiments. One of the HCV replicon cell lines (strain Conl, genotype 1b) has the nucleic acid sequence set forth in EMBL Accession No.: AJ242651, the coding sequence of which is from nucleotides 1801 to 8406. Another replicon cell line (strain H77, genotype 1a) was constructed as described by Yi et al. (Yi et al. (2004) Journal of Virology 78(15):7904-15). The coding sequences of the published HCV replicons were synthesized and subsequently assembled in plasmids using standard molecular biology techniques.
One replicon cell line (“SGR 11-7”) stably expresses HCV replicon RNA, genotype 1b, which consists of (i) the HCV 5′UTR fused to the first 12 amino acids of the capsid protein, (ii) the neomycin phosphotransferase gene (neo), (iii) the IRES from encephalomyocarditis virus (EMCV), and (iv) HCV NS2 to NS5B genes and the HCV 3′UTR. Another replicon cell line (“Huh-1a7”) described by Yi et al. (Yi et al. (2004) Journal of Virology 78(15):7904-15, expressly incorporated by reference in its entirety) stably expresses HCV replicon RNA, genotype 1a, which consists of (i) the HCV 5′UTR fused to the first 12 amino acids of the capsid protein, (ii) the HIV tat protein, (iii) the neomycin phosphotransferase gene (neo), (iv) the IRES from encephalomyocarditis virus (EMCV), and (v) HCV NS3 to NS5B genes that harbor cell culture adaptive mutations (Q1067R, K1691R, S2204I) and the HCV 3′UTR. […]
EC50 values of single agent compounds were determined by HCV RNA detection using quantitative RT-PCR, according to the manufacturer's instructions, with a TAQMAN® One-Step RT-PCR Master Mix Reagents Kit (Cat# AB 4309169, Applied Biosystems) on an ABI Model 7500 thermocycler. EC50 values of combinations are similarly determined by HCV RNA detection using quantitative RT-PCR. The TAQMAN primers to use for detecting and quantifying HCV RNA obtained from Integrated DNA Technologies. HCV RNA is normalized to GAPDH RNA levels in drug-treated cells, which is detected and quantified using the Human GAPDH Endogenous Control Mix (Applied Biosystems, AB 4310884E). […] Chemical agent cytotoxicity is evaluated using an MTS assay according to the manufacturer's directions (Promega). […]
For `[2H][C@@]1(O)[C@@H](CO[P@@](=O)(N[C@@H](C)C(=O)OC(C)C)Oc2ccccc2)O[C@@H](n2ccc(=O)[nH]c2=O)[C@]1(C)F` [Example 1], the EC50 was 100 to 1000 nM.
In the case of `[2H][C@]1(CO[P@@](=O)(N[C@@H](C)C(=O)OC(C)C)Oc2ccccc2)O[C@@H](n2ccc(=O)[nH]c2=O)[C@](C)(F)[C@@H]1O` [Example 2], the EC50 is reported as 100 to 1000 nM.
Work on `[2H]C([2H])(O[P@@](=O)(N[C@@H](C)C(=O)OC(C)C)Oc1ccccc1)[C@H]1O[C@@H](n2ccc(=O)[nH]c2=O)[C@](C)(F)[C@@H]1O` [Example 3] yielded an EC50 of 100 to 1000 nM.
Compound `[2H]C([2H])(O[P@@](=O)(N[C@@H](C)C(=O)OC(C)C)Oc1ccccc1)[C@@]1([2H])O[C@@H](n2ccc(=O)[nH]c2=O)[C@](C)(F)[C@@H]1O` [Example 4] has an EC50 of 100 to 1000 nM.

Reference: US9718851B2, “Deuterated nucleoside/tide derivatives” (Enanta Pharmaceuticals, Inc., priority 2014, dated 2017)
